Measurements: US8916579B2, “5-fluoropyrimidinone derivatives” (Dow AgroSciences, LLC., priority 2009, dated 2014)
Read-outs that look alike come from different tables or passages of the source.

Legend:
[1] = test system: Mycosphaerella graminicola; anamorph: Septoria tritici; Bayer code SEPTTR; test: Fungicidal activity: leaf blotch of wheat, greenhouse wheat plants (variety Yuma), percent disease control; type: in vivo; details: Zymoseptoria tritici
Procedure: Evaluation of Fungicidal Activity: Leaf Blotch of Wheat (Mycosphaerella graminicola; anamorph: Septoria tritici; Bayer code SEPTTR)
Wheat plants (variety Yuma) were grown from seed in a greenhouse in 50% mineral soil/50% soil-less Metro mix until the first leaf was fully emerged, with 7-10 seedlings per pot. These plants were inoculated with an aqueous spore suspension of Septoria tritici either prior to or after fungicide treatments. After inoculation the plants were kept in 100% relative humidity (one day in a dark dew chamber followed by two to three days in a lighted dew chamber) to permit spores to germinate and infect the leaf. The plants were then transferred to a greenhouse for disease to develop.
The effectiveness of the test compounds in controlling disease was determined by assessing the severity of disease on treated plants, then converting the severity to percent control based on the level of disease on untreated, inoculated plants. • In each case of Table II the rating scale is as follows: […]

[2] = 24 h, read-out: SEPTTR 100 PPM 1DP (% Disease Control rating)
[3] = 72 h, read-out: SEPTTR 100 PPM 3DC (% Disease Control rating)
[4] = 24 h, One-Day Protectant (1DP), 100 ppm, wheat plants, read-out: SEPTTR 100 PPM 1DP (% Disease Control rating)
[5] = 72 h, Three-Day Curative (3DC), 100 ppm, wheat plants, read-out: SEPTTR 100 PPM 3DC (% Disease Control rating)

SMILES | melting point | pest or weed control at 100 ppm [1, 4] [%] | pest or weed control at 100 ppm [1, 5] [%] | also measured
O=c1nc(NCN2CCOCC2)c(F)cn1CN1CCOCC1 [Compound 1, 5-fluoro-1-morpholin-4-ylmethyl-4-[(morpholin-4-ylmethyl)amino]-1H-pyrimidin-2-one] | – | – | – | pest or weed control at 100 ppm [1, 2]: 76 to 100%; pest or weed control at 100 ppm [1, 3]: 76 to 100%
CN1CCN(CNc2nc(=O)n(CN3CCN(C)CC3)cc2F)CC1 [Compound 2, 5-fluoro-1-(4-methylpiperazin-1-ylmethyl)-4-[(4-methylpiperazin-1-ylmethyl)-amino]-1H-pyrimidin-2-one] | – | – | – | pest or weed control at 100 ppm [1, 2]: 76 to 100%; pest or weed control at 100 ppm [1, 3]: 76 to 100%
CN(C)CNc1nc(=O)n(CN(C)C)cc1F [Compound 3] | 157 to 187 °C (dec.) | 76 to 100 | 76 to 100 | –
CN(C)/C=N/c1nc(=O)n(Cc2ccc(F)cc2)cc1F [Compound 4, N′-[5-fluoro-1-(4-fluorobenzyl)-2-oxo-1,2-dihydro-pyrimidin-4-yl]-N,N-dimethylformamidine] | – | 26 to 50 | 0 to 25 | –
CN(C)/C=N/c1nc(=O)n(Cc2ccc(Cl)cc2Cl)cc1F [Compound 5] | – | 0 to 25 | 0 to 25 | –
CN(C)/C=N/c1nc(=O)n(Cc2ccccc2)cc1F [Compound 6] | 186 to 188 °C | 0 to 25 | 0 to 25 | –
Cc1ccc(Cn2cc(F)c(/N=C/N(C)C)nc2=O)cc1 [Compound 7] | 178 to 179 °C | 0 to 25 | 0 to 25 | –
Cc1ccc(C(=O)Nc2nc(=O)n(C)cc2F)cc1 [Compound 8, N-(5-fluoro-1-methyl-2-oxo-1,2-dihydro-pyrimidin-4-yl)-4-methyl-benzamide] | – | 26 to 50 | 0 to 25 | –
CN(c1nc(=O)n(C)cc1F)S(=O)(=O)Cc1ccccc1 [Compound 9, N-(5-fluoro-1-methyl-2-oxo-1,2-dihydropyrimidin-4-yl)-N-methyl-C-phenylmethanesulfonamide] | – | 26 to 50 | 0 to 25 | –
CC(C)COC(=O)Nc1nc(=O)n(C)cc1F [Compound 10, (5-fluoro-1-methyl-2-oxo-1,2-dihydropyrimidin-4-yl)carbamic acid isobutyl ester] | 126 to 128 °C | – | – | pest or weed control at 100 ppm [1, 2]: 26 to 50%; pest or weed control at 100 ppm [1, 3]: 51 to 75%
CC(C)COC(=O)N(C)c1nc(=O)n(C)cc1F [Compound 11, (5-fluoro-1-methyl-2-oxo-1,2-dihydropyrimidin-4-yl)methylcarbamic acid isobutyl ester] | – | – | – | pest or weed control at 100 ppm [1, 2]: 26 to 50%; pest or weed control at 100 ppm [1, 3]: 0 to 25%
CN(C)/C=N/c1nc(=O)n(COC(=O)C(C)(C)C)cc1F [Compound 12, 2,2-dimethylpropionic acid 4-(dimethylamino-methyleneamino)-5-fluoro-2-oxo-2H-pyrimidin-1-ylmethyl ester] | – | 76 to 100 | 76 to 100 | –
CCCC(=O)OCn1cc(F)c(/N=C/N(C)C)nc1=O [Compound 13] | 109 to 111 °C | 76 to 100 | 76 to 100 | –
Nc1nc(=O)n(COCc2ccccc2)cc1F [Compound 14, 4-amino-1-(benzyloxymethyl)-5-fluoropyrimidin-2(1H)-one] | 213 to 217 °C | 0 to 25 | 0 to 25 | –
O=c1nc(NCOCc2ccccc2)c(F)cn1COCc1ccccc1 [Compound 15, 1-(benzyloxymethyl)-4-(benzyloxymethylamino)-5-fluoropyrimidin-2(1H)-one] | – | 0 to 25 | 0 to 25 | –
COCCOCn1cc(F)c(N)nc1=O [Compound 16] | 160 to 163 °C | 0 to 25 | 0 to 25 | –
C[Si](C)(C)CCOCn1cc(F)c(N)nc1=O [Compound 17] | 187 to 192 °C | 51 to 75 | 76 to 100 | –

SMILES | melting point | pest or weed control at 100 ppm [1, 4] [%] | pest or weed control at 100 ppm [1, 5] [%] | also measured
CCCCCCCCOCn1cc(F)c(N)nc1=O [Compound 18] | 166 to 170 °C | 26 to 50 | 51 to 75 | –
Nc1nc(=O)n(COc2ccc(Cl)cc2)cc1F [Compound 19] | 240 to 245 °C | 26 to 50 | 0 to 25 | –
CCOC(=O)C(OCC)n1cc(F)c(N)nc1=O (stereo not drawn) [Compound 20] | 150 to 154 °C | 0 to 25 | 0 to 25 | –
Cc1ccc(Cn2cc(F)c(N)nc2=O)cc1 [Compound 25, 4-amino-5-fluoro-1-(4-methylbenzyl)-pyrimidin-2(1H)-one] | – | 0 to 25 | 0 to 25 | –
CCOCn1cc(F)c(NCc2ccccc2F)nc1=O [Compound 37, 1-(ethoxymethyl)-5-fluoro-4-(2-fluorobenzylamino)-pyrimidin-2(1H)-one] | – | 0 to 25 | 0 to 25 | –
Cc1ccc(Cn2cc(F)c(N(C)Cc3ccccc3F)nc2=O)cc1 [Compound 38, 5-fluoro-4-((2-fluorobenzyl)(methyl)amino)-1-(4-methylbenzyl)pyrimidin-2(1H)-one] | – | 0 to 25 | 0 to 25 | –
Nc1nc(=O)n(-c2ccccc2)cc1F [Compound 42] | 233 to 235 °C | – | – | –
COc1ccc(-n2cc(F)c(N)nc2=O)cc1 [Compound 44] | 230 to 232 °C | – | – | –
Nc1nc(=O)n(-c2ccc(Cl)cc2)cc1F [Compound 45] | 255 to 257 °C | – | – | –
Nc1nc(=O)n(/C=C/c2ccccc2)cc1F [Compound 48] | 256 to 258 °C | – | – | –
Nc1nc(=O)n(CC2CC2)cc1F [Compound 74, 4-amino-1-(cyclopropylmethyl)-5-fluoropyrimidin-2(1H)-one] | – | 76 to 100 | 51 to 75 | –
Nc1nc(=O)n(Cc2cccnc2)cc1F [Compound 75] | – | 26 to 50 | 76 to 100 | –
CCOC(=O)Nc1nc(=O)n(Cc2cccnc2)cc1F [Compound 83] | – | 26 to 50 | 26 to 50 | –
CC(=O)Nc1nc(=O)n(CC2CCCO2)cc1F (stereo not drawn) [Compound 95] | – | 0 to 25 | 51 to 75 | –
CC(C)Cn1cc(F)c(NCc2ccccc2F)nc1=O [Compound 105, 5-fluoro-4-(2-fluorobenzylamino)-1-isobutyl-pyrimidin-2(1H)-one] | – | – | – | pest or weed control at 100 ppm [1, 2]: 0 to 25%; pest or weed control at 100 ppm [1, 3]: 26 to 50%
CCNc1nc(=O)n(CC(C)C)cc1F [Compound 107] | – | 0 to 25 | 26 to 50 | –

The next lines start with results.

melting point | SMILES | pest or weed control at 100 ppm [1, 4] [%] | pest or weed control at 100 ppm [1, 5] [%] | also measured
212 to 214 °C | Nc1nc(=O)n(/C=C/Cc2ccccc2)cc1F [Compound 49] | – | – | –
244.4 to 245.7 °C | CS(=O)(=O)c1ccc(-n2cc(F)c(N)nc2=O)cc1 [Compound 50] | – | – | –
190.6 to 192.7 °C | Nc1nc(=O)n(C2=CCCCC2)cc1F [Compound 51] | – | – | –
211.2 to 213 °C | C=C(c1ccccc1)n1cc(F)c(N)nc1=O [Compound 52] | – | – | –
152.8 to 153.4 °C | CCC/C=C/n1cc(F)c(N)nc1=O [Compound 53] | – | – | –
263.3 to 265.1 °C | COc1ccc(/C=C/n2cc(F)c(N)nc2=O)cc1 [Compound 54] | – | – | –
272.8 to 274.2 °C | Nc1nc(=O)n(-c2ccc3ccccc3c2)cc1F [Compound 55] | – | – | –
173.2 to 174.4 °C | CN(C)/C=N/c1nc(=O)n(C2=CCCCC2)cc1F [Compound 60] | – | – | –
147 to 147.9 °C | C=C(c1ccccc1)n1cc(F)c(/N=C/N(C)C)nc1=O [Compound 61] | – | – | –
144.7 to 146.3 °C | CCC/C=C/n1cc(F)c(/N=C/N(C)C)nc1=O [Compound 62] | – | – | –
264.3 to 265.3 °C | COc1ccc(/C=C/n2cc(F)c(/N=C/N(C)C)nc2=O)cc1 [Compound 63] | – | – | –
222.4 to 224.4 °C | CN(C)/C=N/c1nc(=O)n(-c2ccc3ccccc3c2)cc1F [Compound 64] | – | – | –
231.6 to 233.1 °C | CS(=O)(=O)c1ccc(-n2cc(F)c(NCc3ccccc3F)nc2=O)cc1 [Compound 68] | – | – | –
151.5 to 152.6 °C | O=c1nc(NCc2ccccc2F)c(F)cn1C1=CCCCC1 [Compound 69] | – | – | –
138.9 to 140.2 °C | C=C(c1ccccc1)n1cc(F)c(NCc2ccccc2F)nc1=O [Compound 70] | – | – | –
196.8 to 198.5 °C | COc1ccc(/C=C/n2cc(F)c(NCc3ccccc3F)nc2=O)cc1 [Compound 72] | – | – | –
207.5 to 209 °C | O=c1nc(NCc2ccccc2F)c(F)cn1-c1ccc2ccccc2c1 [Compound 73] | – | – | –
207.3 to 208.2 °C | CCOCCn1cc(F)c(N)nc1=O [Compound 78] | – | – | –
128.5 to 130.6 °C | CSCn1cc(F)c(N)nc1=O [Compound 79] | – | – | –
137.1 to 138.8 °C | CCOC(=O)Nc1nc(=O)n(CSC)cc1F [Compound 84] | – | – | –
109 to 110.4 °C | CCOCCn1cc(F)c(NC(=O)c2cccs2)nc1=O [Compound 100] | – | – | –
116.8 to 117.8 °C | CCOCCn1cc(F)c(NC(=O)c2ccccc2F)nc1=O [Compound 101] | – | – | –
63 to 65 °C | CCNc1nc(=O)n(CCOCC)cc1F [Compound 108] | – | – | –
